#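 In this assay, cells in 96-well plates receive the compound at five concentrations for 48 hours. Endpoints are linearly interpolated between the surrounding concentrations. TGI is the concentration that stops growth completely.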
# Test system: NCI-H226 lung
# Experiment: NCI-60 cell line screen, 48 h
row,Structure (SMILES),TGI [µM]
1,COc1c2occc2c(N)c2ccc(=O)oc12,> 100
2,CC(C)N1CCN(c2ccc(OCC3COC(Cn4cncn4)(c4ccc(Cl)cc4Cl)O3)cc2)CC1 (centres undefined),30.1

# Test system: NCI-H23 lung
# Experiment: NCI-60 cell line screen, 48 h
row,Structure (SMILES),TGI [µM]
1,C=CCn1c(=O)ccn(/C(=C/C(=O)OCC)C(=O)OCC)c1=O,36.4
2,[N-]=[N+]=NC1(c2ccccc2)C(=O)c2cccc3c2N(CCC3)C1=O (centres undefined),> 100
3,CCc1c(O)c(O)c(C(C)=O)c2c(O)c(-c3c(C)cc4c(CC)c(O)c(O)c(C(C)=O)c4c3O)c(C)cc12,16.1
4,CC(C)(C)OC(=O)NC(CSSCC(NC(=O)OC(C)(C)C)C(=O)O)C(=O)O (centres undefined),> 100
5,COc1c(C)c(OCC=C(C)C)cc(CO)c1CO,> 100
6,COc1c2occc2c(N)c2ccc(=O)oc12,> 100
7,CC(C)N1CCN(c2ccc(OCC3COC(Cn4cncn4)(c4ccc(Cl)cc4Cl)O3)cc2)CC1 (centres undefined),30.9

# Test system: NCI-H460 lung
# Experiment: NCI-60 cell line screen, 48 h
row,Structure (SMILES),TGI [µM]
1,C=CCn1c(=O)ccn(/C(=C/C(=O)OCC)C(=O)OCC)c1=O,34
2,[N-]=[N+]=NC1(c2ccccc2)C(=O)c2cccc3c2N(CCC3)C1=O (centres undefined),> 100
3,CCc1c(O)c(O)c(C(C)=O)c2c(O)c(-c3c(C)cc4c(CC)c(O)c(O)c(C(C)=O)c4c3O)c(C)cc12,38.5
4,CC(C)(C)OC(=O)NC(CSSCC(NC(=O)OC(C)(C)C)C(=O)O)C(=O)O (centres undefined),> 100
5,COc1c(C)c(OCC=C(C)C)cc(CO)c1CO,> 100
6,COc1c2occc2c(N)c2ccc(=O)oc12,> 100
7,CC(C)N1CCN(c2ccc(OCC3COC(Cn4cncn4)(c4ccc(Cl)cc4Cl)O3)cc2)CC1 (centres undefined),31.3

# Test system: NCI-H522 lung
# Experiment: NCI-60 cell line screen, 48 h
row,Structure (SMILES),TGI [µM]
1,C=CCn1c(=O)ccn(/C(=C/C(=O)OCC)C(=O)OCC)c1=O,7.57
2,[N-]=[N+]=NC1(c2ccccc2)C(=O)c2cccc3c2N(CCC3)C1=O (centres undefined),> 100
3,CCc1c(O)c(O)c(C(C)=O)c2c(O)c(-c3c(C)cc4c(CC)c(O)c(O)c(C(C)=O)c4c3O)c(C)cc12,14.8
4,CC(C)(C)OC(=O)NC(CSSCC(NC(=O)OC(C)(C)C)C(=O)O)C(=O)O (centres undefined),> 100
5,COc1c(C)c(OCC=C(C)C)cc(CO)c1CO,> 100
6,COc1c2occc2c(N)c2ccc(=O)oc12,> 100
7,CC(C)N1CCN(c2ccc(OCC3COC(Cn4cncn4)(c4ccc(Cl)cc4Cl)O3)cc2)CC1 (centres undefined),30.4

# Test system: NCI/ADR-RES ovarian
# Experiment: NCI-60 cell line screen, 48 h
row,Structure (SMILES),TGI [µM]
1,C=CCn1c(=O)ccn(/C(=C/C(=O)OCC)C(=O)OCC)c1=O,50.8
2,CC(C)(C)OC(=O)NC(CSSCC(NC(=O)OC(C)(C)C)C(=O)O)C(=O)O (centres undefined),> 100
3,COc1c(C)c(OCC=C(C)C)cc(CO)c1CO,> 100
4,COc1c2occc2c(N)c2ccc(=O)oc12,> 100
5,CC(C)N1CCN(c2ccc(OCC3COC(Cn4cncn4)(c4ccc(Cl)cc4Cl)O3)cc2)CC1 (centres undefined),54.9

# Test system: OVCAR-3 ovarian
# Experiment: NCI-60 cell line screen, 48 h
row,Structure (SMILES),TGI [µM]
1,C=CCn1c(=O)ccn(/C(=C/C(=O)OCC)C(=O)OCC)c1=O,18.2
2,[N-]=[N+]=NC1(c2ccccc2)C(=O)c2cccc3c2N(CCC3)C1=O (centres undefined),> 100
3,CCc1c(O)c(O)c(C(C)=O)c2c(O)c(-c3c(C)cc4c(CC)c(O)c(O)c(C(C)=O)c4c3O)c(C)cc12,18
4,CC(C)(C)OC(=O)NC(CSSCC(NC(=O)OC(C)(C)C)C(=O)O)C(=O)O (centres undefined),> 100
5,COc1c2occc2c(N)c2ccc(=O)oc12,> 100
6,CC(C)N1CCN(c2ccc(OCC3COC(Cn4cncn4)(c4ccc(Cl)cc4Cl)O3)cc2)CC1 (centres undefined),31

# Test system: OVCAR-4 ovarian
# Experiment: NCI-60 cell line screen, 48 h
row,Structure (SMILES),TGI [µM]
1,C=CCn1c(=O)ccn(/C(=C/C(=O)OCC)C(=O)OCC)c1=O,> 51.4
2,[N-]=[N+]=NC1(c2ccccc2)C(=O)c2cccc3c2N(CCC3)C1=O (centres undefined),> 100
3,CCc1c(O)c(O)c(C(C)=O)c2c(O)c(-c3c(C)cc4c(CC)c(O)c(O)c(C(C)=O)c4c3O)c(C)cc12,26.5
4,CC(C)(C)OC(=O)NC(CSSCC(NC(=O)OC(C)(C)C)C(=O)O)C(=O)O (centres undefined),> 100
5,COc1c(C)c(OCC=C(C)C)cc(CO)c1CO,> 100
6,COc1c2occc2c(N)c2ccc(=O)oc12,> 100
7,CC(C)N1CCN(c2ccc(OCC3COC(Cn4cncn4)(c4ccc(Cl)cc4Cl)O3)cc2)CC1 (centres undefined),35.6

# Test system: OVCAR-5 ovarian
# Experiment: NCI-60 cell line screen, 48 h
row,Structure (SMILES),TGI [µM]
1,C=CCn1c(=O)ccn(/C(=C/C(=O)OCC)C(=O)OCC)c1=O,29.9
2,[N-]=[N+]=NC1(c2ccccc2)C(=O)c2cccc3c2N(CCC3)C1=O (centres undefined),> 100
3,CCc1c(O)c(O)c(C(C)=O)c2c(O)c(-c3c(C)cc4c(CC)c(O)c(O)c(C(C)=O)c4c3O)c(C)cc12,32.9
4,CC(C)(C)OC(=O)NC(CSSCC(NC(=O)OC(C)(C)C)C(=O)O)C(=O)O (centres undefined),> 100
5,COc1c(C)c(OCC=C(C)C)cc(CO)c1CO,> 100
6,COc1c2occc2c(N)c2ccc(=O)oc12,> 100
7,CC(C)N1CCN(c2ccc(OCC3COC(Cn4cncn4)(c4ccc(Cl)cc4Cl)O3)cc2)CC1 (centres undefined),29.8
8,CCCC(=O)OC[n+]1ccc2c(C)c3[nH]c4ccccc4c3c(C)c2c1,2.34

# Test system: OVCAR-8 ovarian
# Experiment: NCI-60 cell line screen, 48 h
row,Structure (SMILES),TGI [µM]
1,C=CCn1c(=O)ccn(/C(=C/C(=O)OCC)C(=O)OCC)c1=O,31.5
2,CC(C)(C)OC(=O)NC(CSSCC(NC(=O)OC(C)(C)C)C(=O)O)C(=O)O (centres undefined),> 100
3,COc1c(C)c(OCC=C(C)C)cc(CO)c1CO,> 100
4,COc1c2occc2c(N)c2ccc(=O)oc12,> 100
5,CC(C)N1CCN(c2ccc(OCC3COC(Cn4cncn4)(c4ccc(Cl)cc4Cl)O3)cc2)CC1 (centres undefined),39.2

# Test system: PC-3 prostate
# Experiment: NCI-60 cell line screen, 48 h
row,Structure (SMILES),TGI [µM]
1,C=CCn1c(=O)ccn(/C(=C/C(=O)OCC)C(=O)OCC)c1=O,27.9
2,CC(C)(C)OC(=O)NC(CSSCC(NC(=O)OC(C)(C)C)C(=O)O)C(=O)O (centres undefined),> 100
3,COc1c(C)c(OCC=C(C)C)cc(CO)c1CO,> 100
4,COc1c2occc2c(N)c2ccc(=O)oc12,> 100
5,CC(C)N1CCN(c2ccc(OCC3COC(Cn4cncn4)(c4ccc(Cl)cc4Cl)O3)cc2)CC1 (centres undefined),35.1

# Test system: RPMI-8226 leukemia
# Experiment: NCI-60 cell line screen, 48 h
row,Structure (SMILES),TGI [µM]
1,C=CCn1c(=O)ccn(/C(=C/C(=O)OCC)C(=O)OCC)c1=O,31.4
2,[N-]=[N+]=NC1(c2ccccc2)C(=O)c2cccc3c2N(CCC3)C1=O (centres undefined),> 100
3,CCc1c(O)c(O)c(C(C)=O)c2c(O)c(-c3c(C)cc4c(CC)c(O)c(O)c(C(C)=O)c4c3O)c(C)cc12,24.2
4,CC(C)(C)OC(=O)NC(CSSCC(NC(=O)OC(C)(C)C)C(=O)O)C(=O)O (centres undefined),> 100
5,COc1c(C)c(OCC=C(C)C)cc(CO)c1CO,> 100
6,COc1c2occc2c(N)c2ccc(=O)oc12,> 100
7,CC(C)N1CCN(c2ccc(OCC3COC(Cn4cncn4)(c4ccc(Cl)cc4Cl)O3)cc2)CC1 (centres undefined),29.7

# Test system: RXF 393 renal
# Experiment: NCI-60 cell line screen, 48 h
row,Structure (SMILES),TGI [µM]
1,C=CCn1c(=O)ccn(/C(=C/C(=O)OCC)C(=O)OCC)c1=O,28.5
2,[N-]=[N+]=NC1(c2ccccc2)C(=O)c2cccc3c2N(CCC3)C1=O (centres undefined),> 100
3,CC(C)(C)OC(=O)NC(CSSCC(NC(=O)OC(C)(C)C)C(=O)O)C(=O)O (centres undefined),> 100
4,COc1c(C)c(OCC=C(C)C)cc(CO)c1CO,78.2
5,COc1c2occc2c(N)c2ccc(=O)oc12,> 100
6,CC(C)N1CCN(c2ccc(OCC3COC(Cn4cncn4)(c4ccc(Cl)cc4Cl)O3)cc2)CC1 (centres undefined),25

# Test system: SF-268 CNS
# Experiment: NCI-60 cell line screen, 48 h
row,Structure (SMILES),TGI [µM]
1,C=CCn1c(=O)ccn(/C(=C/C(=O)OCC)C(=O)OCC)c1=O,42.1
2,[N-]=[N+]=NC1(c2ccccc2)C(=O)c2cccc3c2N(CCC3)C1=O (centres undefined),> 100
3,CCc1c(O)c(O)c(C(C)=O)c2c(O)c(-c3c(C)cc4c(CC)c(O)c(O)c(C(C)=O)c4c3O)c(C)cc12,37.1
4,CC(C)(C)OC(=O)NC(CSSCC(NC(=O)OC(C)(C)C)C(=O)O)C(=O)O (centres undefined),> 100
5,COc1c(C)c(OCC=C(C)C)cc(CO)c1CO,> 100
6,COc1c2occc2c(N)c2ccc(=O)oc12,> 100
7,CC(C)N1CCN(c2ccc(OCC3COC(Cn4cncn4)(c4ccc(Cl)cc4Cl)O3)cc2)CC1 (centres undefined),28.8

# Test system: SF-295 CNS
# Experiment: NCI-60 cell line screen, 48 h
row,Structure (SMILES),TGI [µM]
1,C=CCn1c(=O)ccn(/C(=C/C(=O)OCC)C(=O)OCC)c1=O,> 87.7
2,[N-]=[N+]=NC1(c2ccccc2)C(=O)c2cccc3c2N(CCC3)C1=O (centres undefined),> 100
3,CCc1c(O)c(O)c(C(C)=O)c2c(O)c(-c3c(C)cc4c(CC)c(O)c(O)c(C(C)=O)c4c3O)c(C)cc12,11
4,CC(C)(C)OC(=O)NC(CSSCC(NC(=O)OC(C)(C)C)C(=O)O)C(=O)O (centres undefined),> 100
5,COc1c(C)c(OCC=C(C)C)cc(CO)c1CO,> 100
6,COc1c2occc2c(N)c2ccc(=O)oc12,> 100
7,CC(C)N1CCN(c2ccc(OCC3COC(Cn4cncn4)(c4ccc(Cl)cc4Cl)O3)cc2)CC1 (centres undefined),26.6

# Test system: SF-539 CNS
# Experiment: NCI-60 cell line screen, 48 h
row,Structure (SMILES),TGI [µM]
1,C=CCn1c(=O)ccn(/C(=C/C(=O)OCC)C(=O)OCC)c1=O,49.5
2,CCc1c(O)c(O)c(C(C)=O)c2c(O)c(-c3c(C)cc4c(CC)c(O)c(O)c(C(C)=O)c4c3O)c(C)cc12,22.4
3,CC(C)(C)OC(=O)NC(CSSCC(NC(=O)OC(C)(C)C)C(=O)O)C(=O)O (centres undefined),> 100
4,COc1c(C)c(OCC=C(C)C)cc(CO)c1CO,> 100
5,COc1c2occc2c(N)c2ccc(=O)oc12,> 100
6,CC(C)N1CCN(c2ccc(OCC3COC(Cn4cncn4)(c4ccc(Cl)cc4Cl)O3)cc2)CC1 (centres undefined),27.3

# Test system: SK-MEL-2 melanoma
# Experiment: NCI-60 cell line screen, 48 h
row,Structure (SMILES),TGI [µM]
1,C=CCn1c(=O)ccn(/C(=C/C(=O)OCC)C(=O)OCC)c1=O,34.3
2,[N-]=[N+]=NC1(c2ccccc2)C(=O)c2cccc3c2N(CCC3)C1=O (centres undefined),> 100

# From PubChem BioAssay (NCI)
